This passage reports GI50 and IC50 results from ChEMBL document CHEMBL6103581, “Identification of Thieno[3,2-d]pyrimidine derivatives as potent and selective Janus Kinase 1 inhibitors” (Eur J Med Chem, 2025).

One experiment deals with BaF3. The experiment is described as follows: Antiproliferative activity against mouse parental BaF3 cells assessed as cell growth inhibition incubated for 72 hrs by Cell-TiterGlo assay. It counts as functional.
Experiment [1] can be described thus: Antiproliferative activity against mouse Ba/F3-TEL-JAK1 cells assessed as cell growth inhibition incubated for 72 hrs by Cell-TiterGlo assay. It counts as functional.
Another experiment deals with NCI-H1975. The experiment is described as follows: Antiproliferative activity against human NCI-H1975 cells assessed as cell growth inhibition incubated for 72 hrs by Cell-TiterGlo assay. It is filed as functional.
The next experiment deals with NCI-H2087. In words: Antiproliferative activity against human NCI-H2087 cells assessed as cell growth inhibition incubated for 72 hrs by Cell-TiterGlo assay. It is filed as functional.
Experiment [2] has as its target Tyrosine-protein kinase JAK2 (Homo sapiens, UniProt O60674). The experiment is described as follows: Inhibition of N-terminal GST-tagged human recombinant JAK2 (804 to end residues) extracted from baculovirus infected in Sf9 cells using IGF1Rtide as substrate preincubated for 15 min followed by substrate addition and measured after 1 hr by ADP-Glo kinase assay.
Experiment [3] addresses T1, Tyrosine-protein kinase JAK3 (Homo sapiens, UniProt P52333).
T1 sequence (P52333 whole entry): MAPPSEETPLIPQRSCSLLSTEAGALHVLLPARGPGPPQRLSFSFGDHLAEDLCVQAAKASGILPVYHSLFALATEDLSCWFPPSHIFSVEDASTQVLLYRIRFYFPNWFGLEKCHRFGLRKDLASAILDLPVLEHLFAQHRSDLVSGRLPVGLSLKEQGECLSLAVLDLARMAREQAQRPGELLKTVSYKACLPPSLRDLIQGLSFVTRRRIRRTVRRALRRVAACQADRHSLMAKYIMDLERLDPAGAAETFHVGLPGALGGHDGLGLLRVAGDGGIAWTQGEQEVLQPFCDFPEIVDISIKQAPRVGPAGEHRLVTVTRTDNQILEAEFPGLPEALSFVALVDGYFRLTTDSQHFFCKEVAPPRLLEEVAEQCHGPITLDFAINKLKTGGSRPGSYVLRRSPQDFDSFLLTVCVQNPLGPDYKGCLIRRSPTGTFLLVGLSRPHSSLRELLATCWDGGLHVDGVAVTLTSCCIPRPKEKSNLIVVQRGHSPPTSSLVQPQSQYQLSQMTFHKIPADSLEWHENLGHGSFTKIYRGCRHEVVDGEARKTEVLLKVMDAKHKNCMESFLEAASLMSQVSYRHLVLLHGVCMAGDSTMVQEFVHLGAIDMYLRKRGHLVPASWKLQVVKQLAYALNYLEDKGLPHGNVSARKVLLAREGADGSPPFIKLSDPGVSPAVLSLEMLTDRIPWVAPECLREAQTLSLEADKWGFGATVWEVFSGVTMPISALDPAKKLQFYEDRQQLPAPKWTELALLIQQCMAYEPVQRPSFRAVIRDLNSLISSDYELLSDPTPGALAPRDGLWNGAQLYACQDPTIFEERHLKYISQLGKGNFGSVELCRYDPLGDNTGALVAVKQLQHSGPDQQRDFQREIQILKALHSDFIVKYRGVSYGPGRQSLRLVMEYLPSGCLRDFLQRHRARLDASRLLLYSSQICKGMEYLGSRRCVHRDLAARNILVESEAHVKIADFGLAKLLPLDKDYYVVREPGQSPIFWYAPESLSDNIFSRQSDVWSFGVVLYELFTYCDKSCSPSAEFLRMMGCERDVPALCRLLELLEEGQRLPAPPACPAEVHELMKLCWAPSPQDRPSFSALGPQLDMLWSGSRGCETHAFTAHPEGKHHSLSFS
The experiment is described as follows: Inhibition of N-terminal GST-tagged human recombinant JAK3 (781 to end residues) extracted from baculovirus infected in Sf9 cells using Poly(4:1 Glu, Tyr) as substrate preincubated for 15 min followed by substrate addition and measured after 1 hr by ADP-Glo kinase assay. In general terms: ADP-Glo turns the ADP formed in a reaction into a luminescent signal.

Sequence of Tyrosine-protein kinase JAK2 (O60674 whole entry): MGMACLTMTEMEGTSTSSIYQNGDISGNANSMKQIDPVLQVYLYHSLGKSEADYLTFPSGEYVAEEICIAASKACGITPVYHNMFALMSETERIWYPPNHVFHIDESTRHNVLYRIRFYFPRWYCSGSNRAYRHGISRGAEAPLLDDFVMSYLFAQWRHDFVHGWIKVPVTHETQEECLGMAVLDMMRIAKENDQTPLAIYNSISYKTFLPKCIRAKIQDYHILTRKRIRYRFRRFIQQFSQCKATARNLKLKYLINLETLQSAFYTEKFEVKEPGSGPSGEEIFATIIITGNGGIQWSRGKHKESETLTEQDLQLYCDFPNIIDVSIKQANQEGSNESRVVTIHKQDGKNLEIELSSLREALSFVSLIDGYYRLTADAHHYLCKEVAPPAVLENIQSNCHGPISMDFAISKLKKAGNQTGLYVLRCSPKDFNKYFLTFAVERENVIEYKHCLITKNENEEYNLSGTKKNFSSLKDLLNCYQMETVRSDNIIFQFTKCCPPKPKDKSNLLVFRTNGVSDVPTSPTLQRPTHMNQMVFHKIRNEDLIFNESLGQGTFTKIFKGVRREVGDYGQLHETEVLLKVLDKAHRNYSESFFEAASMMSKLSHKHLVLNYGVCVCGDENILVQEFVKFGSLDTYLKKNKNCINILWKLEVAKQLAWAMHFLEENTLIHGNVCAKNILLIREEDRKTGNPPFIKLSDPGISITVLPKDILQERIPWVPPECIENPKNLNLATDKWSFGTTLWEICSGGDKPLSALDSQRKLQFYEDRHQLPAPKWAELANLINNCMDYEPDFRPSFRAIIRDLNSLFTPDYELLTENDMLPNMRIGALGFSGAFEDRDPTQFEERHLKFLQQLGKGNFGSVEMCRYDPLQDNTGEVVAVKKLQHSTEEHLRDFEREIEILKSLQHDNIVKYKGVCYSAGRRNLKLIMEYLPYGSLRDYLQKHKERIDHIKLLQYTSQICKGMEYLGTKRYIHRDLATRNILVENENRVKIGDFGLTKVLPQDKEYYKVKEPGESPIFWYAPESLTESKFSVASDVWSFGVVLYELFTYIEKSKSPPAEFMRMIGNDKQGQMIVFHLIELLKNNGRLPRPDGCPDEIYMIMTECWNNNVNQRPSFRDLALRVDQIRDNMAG

What is called GI50 is the concentration at which growth is held to half of that of the control. As to `Cc1ccnc(C)c1Nc1ncc2scc(-c3cccc(NC(=O)[C@@H](C)N4CCN(C)CC4)c3)c2n1`, the GI50 amounted to 17.3 µM in the experiment on BaF3, 16.2 µM in experiment [1], 28.9 µM in the experiment on NCI-H1975 and 7.82 µM in the experiment on NCI-H2087.
`COc1nn(C(C)=O)cc1Nc1ncc2scc(-c3cccc(NC(=O)[C@@H](C)N4CCN(C)CC4)c3)c2n1`: the GI50 in the experiment on BaF3 was 2.27 µM; in experiment [1], 2.42 µM; with NCI-H1975, 4.61 µM; in the experiment with NCI-H2087 it was 3.28 µM.
The like results for `COc1nn(C)cc1Nc1ncc2scc(-c3cccc(NC(=O)[C@H]4CCCN4C4CCOCC4)c3)c2n1` were, in that order, 6.37 µM, 2.79 µM, 21 µM and 9.31 µM.
For orientation: IC50 means the concentration at which inhibition is half-maximal. With `COc1nn(C)cc1Nc1ncc2scc(-c3cccc(NC(=O)[C@H]4CCCN4C(C)=O)c3)c2n1`, the GI50 was 4.06 µM in the experiment on BaF3, 0.897 µM in experiment [1], 10.2 µM with NCI-H1975 and 13.1 µM with NCI-H2087. Besides, the half-maximal inhibitory concentration (IC50) in experiment [2] was 3.02 µM; in experiment [3], 0.248 µM.
As to `Cc1ncccc1Nc1ncc2scc(-c3cccc(NC(=O)[C@@H](C)N4CCN(C)CC4)c3)c2n1`, the concentration for 50% growth inhibition (GI50) in the experiment on BaF3 came to 2.74 µM; in experiment [1], 1.97 µM; with NCI-H1975, 23.1 µM; with NCI-H2087 it was 6.42 µM.
The like results for `C=CC(=O)N1CCN([C@H](C)C(=O)Nc2cccc(-c3csc4cnc(Nc5cn(C)nc5OC)nc34)c2)CC1` were, in that order, 1.62 µM, 1.7 µM, 13.5 µM and 10.5 µM.
Taken in the same sequence, the figures for `Cc1cc(Nc2ncc3scc(-c4cccc(NC(=O)[C@@H](C)N5CCN(C)CC5)c4)c3n2)n(C)n1` were 4.26 µM, 1.6 µM, 7.34 µM and 7.05 µM.
Turning to `COc1nn(C)cc1Nc1ncc2scc(-c3cccc(NC(=O)[C@@H](C)N4CCN(C(C)=O)CC4)c3)c2n1`, the concentration for 50% growth inhibition (GI50) in the experiment on BaF3 came to 1.69 µM; in experiment [1], 1.89 µM; with NCI-H1975 it was 23.6 µM; in the experiment with NCI-H2087 it was 21.1 µM.
For the compound `COc1nn(C)cc1Nc1ncc2scc(-c3cccc(NC(=O)[C@@H](C)N4CCN(C5COC5)CC4)c3)c2n1`, the concentration for 50% growth inhibition (GI50) in the experiment on BaF3 was 6.07 µM; in experiment [1], 6.78 µM; in the experiment with NCI-H1975 it was > 50 µM; with NCI-H2087, 16.4 µM.
Taken in the same sequence, the figures for `C=CC(=O)N1C[C@H](Nc2ncnc3[nH]ccc23)CC[C@@H]1C` [RITLECITINIB] were > 50 µM, > 50 µM, > 50 µM and > 50 µM.
Turning to `COc1nn(C)cc1Nc1ncc2scc(-c3cccc(NC(=O)[C@@H](C)N4CCN(C(=O)CC#N)CC4)c3)c2n1`, the GI50 in the experiment on BaF3 came out at 3.98 µM; in experiment [1] it was 2.44 µM; in the experiment on NCI-H1975, 40.3 µM; with NCI-H2087 it was 23.3 µM.
For `C[C@@H]1CCN(C(=O)CC#N)C[C@@H]1N(C)c1ncnc2[nH]ccc12` [TOFACITINIB], the 50% growth inhibitory concentration (GI50) in the experiment on BaF3 is 1.81 µM; in experiment [1], 0.495 µM; with NCI-H1975 it was > 50 µM; in the experiment on NCI-H2087, > 50 µM.
As to `COc1nn(C)cc1Nc1ncc2scc(-c3cccc(NS(C)(=O)=O)c3)c2n1`, the GI50 turned out to be 0.781 µM in the experiment with BaF3, 0.659 µM in experiment [1], 4.53 µM in the experiment on NCI-H1975 and 8.22 µM with NCI-H2087.
Taken in the same sequence, the figures for `Cc1ccc(Nc2ncc3scc(-c4cccc(NC(=O)[C@@H](C)N5CCN(C)CC5)c4)c3n2)cn1` were 2.52 µM, 0.994 µM, 9.18 µM and 2.67 µM.
The like results for `COc1nn(C)cc1Nc1ncc2scc(-c3cccc(NC(=O)[C@H]4CCCN4C4CCN(C)CC4)c3)c2n1` were, in that order, 2.25 µM, 1.61 µM, 11 µM and 4.26 µM.
Taken in the same sequence, the figures for `COc1nn(C)cc1Nc1ncc2scc(-c3cccc(NC(=O)[C@@H]4CCCN4)c3)c2n1` were 3.33 µM, 1.22 µM, 8.86 µM and 3.74 µM.
For `COc1nn(C)cc1Nc1ncc2scc(-c3cccc(NC(=O)[C@@H](C)N4CCN(C(C)C)CC4)c3)c2n1`, the 50% growth inhibitory concentration (GI50) in the experiment on BaF3 came to 1.05 µM; in experiment [1] it was 0.519 µM; in the experiment on NCI-H1975, 15.4 µM; in the experiment on NCI-H2087, 3.61 µM.
Taken in the same sequence, the figures for `C[C@H](C(=O)Nc1cccc(-c2csc3cnc(Nc4nnn(C)n4)nc23)c1)N1CCN(C)CC1` were 6.09 µM, 7.17 µM, 27.9 µM and 6.47 µM.
Taken in the same sequence, the figures for `Cc1ccc(Nc2ncc3scc(-c4cccc(NC(=O)[C@@H](C)N5CCN(C)CC5)c4)c3n2)c(C)n1` were 7.83 µM, 5.45 µM, 27.2 µM and 6.49 µM.
In the case of `C[C@H](C(=O)Nc1cccc(-c2csc3cnc(Nc4cn(C)nc4C(F)(F)F)nc23)c1)N1CCN(C)CC1`, the GI50 amounted to 2.77 µM in the experiment on BaF3, 1.93 µM in experiment [1], 7.4 µM in the experiment with NCI-H1975 and 3.03 µM with NCI-H2087.
For `COc1nn(C)cc1Nc1ncc2scc(-c3cccc(NC(=O)[C@@H](C)N4CCN(C(=O)C(F)(F)F)CC4)c3)c2n1`, the GI50 in the experiment with BaF3 is 1.04 µM; in experiment [1], 0.351 µM; in the experiment on NCI-H1975, 7.36 µM; in the experiment with NCI-H2087, 3.48 µM.
Take `COc1nn(CCO)cc1Nc1ncc2scc(-c3cccc(NC(=O)[C@@H](C)N4CCN(C)CC4)c3)c2n1`: the GI50 stood at 1.04 µM in the experiment with BaF3, 0.809 µM in experiment [1], 10.4 µM with NCI-H1975 and 5.57 µM in the experiment on NCI-H2087.
Regarding `COc1ncccc1Nc1ncc2scc(-c3cccc(NC(=O)[C@@H](C)N4CCN(C)CC4)c3)c2n1`, the GI50 came to 2.59 µM in the experiment on BaF3, 1.77 µM in experiment [1], 10.5 µM in the experiment with NCI-H1975 and 3.27 µM in the experiment with NCI-H2087.
Regarding `COc1nn(C)cc1Nc1ncc2scc(-c3cccc(NC(=O)[C@H]4CCCN4)c3)c2n1`, the 50% growth inhibitory concentration (GI50) in the experiment with BaF3 was 3.31 µM; in experiment [1], 0.744 µM; with NCI-H1975, 5.26 µM; in the experiment on NCI-H2087 it was 1.51 µM. Further, the values for the half-maximal inhibitory concentration (IC50) in experiment [2] and in experiment [3] were 1.6 µM and 0.069 µM, respectively.
With `C[C@H](C(=O)Nc1cccc(-c2csc3cnc(Nc4cccnc4O)nc23)c1)N1CCN(C)CC1`, the 50% growth inhibitory concentration (GI50) in the experiment with BaF3 amounted to 6.16 µM; in experiment [1], 7.31 µM; in the experiment on NCI-H1975, 18.5 µM; with NCI-H2087, 13.5 µM.
`COc1nn(C)cc1Nc1ncc2scc(-c3cccc(NC(=O)[C@@H](C)N4CCNCC4)c3)c2n1`: the GI50 in the experiment with BaF3 came to 0.507 µM; in experiment [1], 0.188 µM; with NCI-H1975, 4.26 µM; in the experiment on NCI-H2087, 1.66 µM.
As to `COc1nn(C)cc1Nc1ncc2scc(-c3cccc(NC(=O)[C@@H](C)N4CCN(S(C)(=O)=O)CC4)c3)c2n1`, the 50% growth inhibitory concentration (GI50) came out at 3.77 µM in the experiment on BaF3, 2.45 µM in experiment [1], 20.2 µM with NCI-H1975 and 22.2 µM with NCI-H2087.
Taken in the same sequence, the figures for `COc1nn(C)cc1Nc1ncc2scc(-c3cccc(NC(=O)[C@@H](C)N4CCN(C5CCOCC5)CC4)c3)c2n1` were 1.37 µM, 1.22 µM, 23.4 µM and 8.98 µM.
For `COc1n[nH]cc1Nc1ncc2scc(-c3cccc(NC(=O)[C@@H](C)N4CCN(C)CC4)c3)c2n1`, the GI50 with BaF3 was 1.24 µM; in experiment [1], 0.62 µM; with NCI-H1975, 16.5 µM; in the experiment on NCI-H2087, 8.62 µM.
Taken in the same sequence, the figures for `COc1nn(C)cc1Nc1ncc2scc(-c3cccc(NC(=O)[C@H]4CCCN4S(C)(=O)=O)c3)c2n1` were 6.16 µM, 3.1 µM, 8.98 µM and 9.5 µM.
The like results for `C[C@H](C(=O)Nc1cccc(-c2csc3cnc(Nc4cccc(S(C)(=O)=O)c4F)nc23)c1)N1CCN(C)CC1` were, in that order, 0.677 µM, 0.641 µM, 12.6 µM and 6.28 µM.
